Test results taken from US20040228872A1 (priority 2003, published 2004).

Key:
[1] = in vivo; cited from earlier work
[2] = tested on: orbicularis oculi muscles; conditions: guinea pig, in vivo
[3] = tested on: foreleg flexor muscles; conditions: mouse, in vivo

For `O=c1c(-c2ccc(O)cc2)coc2cc(O)cc(O)c12` [genistein, 5,7-dihydroxy-3-(4-hydroxyphenyl)-4H-1-benzopyran-4-one], which “Tolerability of dietary intake” value [1] is on record?
The value was “without obvious ill effects”.

And the “Delay of time to 50% recovery of blinks (blink amplitude)” value [2]?
Its value is “approximately 10 days”.

What about the “Recovery of blinks after surgery” value [2] of the same compound?
Its value is “full recovery within a week”.

What about the “Reduction of blink amplitude after surgery” value [2] of the same compound?
Its value is ≤ 10%.

What about the “Grip strength recovery (percent of untreated baseline grip strength)” value [3] of the same compound?
Its value is “retarded”.
